Assay results: PubChem BioAssay AID256 (DTP/NCI, 2004)
Where “and” joins values, the source holds several entries; their conditions need not be identical. Identical values can stand only once. Inconclusive results and toxic doses are left out. Rule for the calls: active = survival T/C of 150% or more; inactive = T/C below 125% in these data.

Tested on: CD2F1 mice, L1210 leukemia ip, survival T/C
Test: NCI In Vivo Anticancer Drug Screen. Data for tumor model L1210 Leukemia (intraperitoneal) in CD2F1 (CDF1) mice
Settings: higher = longer survival
How it was run: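 Vehicle-treated tumor-bearing mice served as controls (C) for compound-treated mice (T). Reported figure is T divided by C.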

[1] = endpoint: mean survival time, dose: 100.0 mg/kg/injection, schedule: Q01DX001 (ip), vehicle: saline
[2] = endpoint: mean survival time, dose: 200.0 mg/kg/injection, schedule: Q01DX001 (ip), vehicle: saline
[3] = endpoint: mean survival time, dose: 100.0 mg/kg/injection, schedule: Q01DX009 (ip), vehicle: saline with Tween-80
[4] = endpoint: mean survival time, dose: 200.0 mg/kg/injection, schedule: Q01DX009 (ip), vehicle: saline with Tween-80
[5] = endpoint: mean survival time, dose: 100.0 mg/kg/injection, schedule: Q04DX002 (ip), vehicle: saline with Tween-80
[6] = endpoint: mean survival time, dose: 200.0 mg/kg/injection, schedule: Q04DX002 (ip), vehicle: saline with Tween-80
[7] = endpoint: mean survival time, dose: 400.0 mg/kg/injection, schedule: Q04DX002 (ip), vehicle: saline with Tween-80
[8] = endpoint: mean survival time, dose: 400.0 mg/kg/injection, schedule: Q01DX009 (ip), vehicle: saline with Tween-80
[9] = endpoint: mean survival time, dose: 100.0 mg/kg/injection, schedule: Q04DX003 (ip), vehicle: saline with Tween-80
[10] = endpoint: mean survival time, dose: 200.0 mg/kg/injection, schedule: Q04DX003 (ip), vehicle: saline with Tween-80
[11] = endpoint: mean survival time, dose: 400.0 mg/kg/injection, schedule: Q04DX003 (ip), vehicle: saline with Tween-80

Measured: T/C

CC(C(=O)O)C1(O)CCCCC1 (configuration not stated)
inactive: endpoint: mean survival time, dose: 5.0 mg/kg/injection, schedule: Q01DX009 (ip), vehicle: saline with Tween-80 101 % of control | endpoint: mean survival time, dose: 10.0 mg/kg/injection, schedule: Q01DX009 (ip), vehicle: saline with Tween-80 95 % of control | endpoint: mean survival time, dose: 20.0 mg/kg/injection, schedule: Q01DX009 (ip), vehicle: saline with Tween-80 90 % of control

CCOC(=O)NCCB(O)O
inactive: endpoint: mean survival time, dose: 100.0 mg/kg/injection, schedule: Q04DX002 (ip), vehicle: saline 100 % of control | endpoint: mean survival time, dose: 200.0 mg/kg/injection, schedule: Q04DX002 (ip), vehicle: saline 88 % of control | endpoint: mean survival time, dose: 400.0 mg/kg/injection, schedule: Q04DX002 (ip), vehicle: saline 95 % of control

COc1cc2ccncc2cc1O
inactive: endpoint: mean survival time, dose: 25.0 mg/kg/injection, schedule: Q01DX009 (ip), vehicle: water 96 % of control | endpoint: mean survival time, dose: 50.0 mg/kg/injection, schedule: Q01DX009 (ip), vehicle: water 96 % of control

Cn1nc2ccccc2c1C#N
inactive: endpoint: mean survival time, dose: 50.0 mg/kg/injection, schedule: Q01DX001 (ip), vehicle: saline 102 % of control | [1] 103 % of control | [2] 96 % of control

COC1(OC)C(Cl)=C(Cl)C2C1C1(Cl)C(Cl)=C(Cl)C2(Cl)C1(OC)OC (configuration not stated)
inactive: [1] 106 % of control | endpoint: mean survival time, dose: 100.0 mg/kg/injection, schedule: Q04DX003 (ip), vehicle: saline 105 % of control | [2] 106 % of control | endpoint: mean survival time, dose: 200.0 mg/kg/injection, schedule: Q04DX003 (ip), vehicle: saline 103 % of control | endpoint: mean survival time, dose: 400.0 mg/kg/injection, schedule: Q01DX001 (ip), vehicle: saline 102 % of control | endpoint: mean survival time, dose: 400.0 mg/kg/injection, schedule: Q04DX003 (ip), vehicle: saline 100 % of control

COC(=O)C(NC(=O)CCNC(=O)OCc1ccccc1)C(C)C (configuration not stated)
inactive: [3] 95 % of control | [4] 101 % of control

CC1(C)C(=O)C(Cl)C(c2ccccc2)=C1c1ccccc1 (configuration not stated)
inactive: [5] 101 % of control | [6] 96 % of control | [7] 101 % of control

COC(=O)C1C2CC(OS(=O)(=O)c3ccc(C)cc3)C(C2)C1C(=O)OC (configuration not stated)
inactive: endpoint: mean survival time, dose: 100.0 mg/kg/injection, schedule: Q01DX001 (ip), vehicle: saline with Tween-80 93 % of control | [3] 98 % of control | endpoint: mean survival time, dose: 200.0 mg/kg/injection, schedule: Q01DX001 (ip), vehicle: saline with Tween-80 95 % of control | [4] 91 % of control | endpoint: mean survival time, dose: 400.0 mg/kg/injection, schedule: Q01DX001 (ip), vehicle: saline with Tween-80 92 % of control | [8] 95 % of control

c1ccc(CCCCc2ccc3ccccc3n2)cc1
inactive: [3] 93 % of control | [9] 106 % of control | [4] 102 % of control | [10] 100 % of control | [8] 98 % of control | [11] 100 % of control

O=c1[nH]c(SCc2ccccc2)nc(Cc2ccccc2)c1CCO
inactive: [9] 95 % of control | [10] 94 % of control | [11] 90 % of control

COC1CCC(/C=C(\C#N)C2CCC(C)CC2)CC1 (configuration not stated)
inactive: endpoint: mean survival time, dose: 25.0 mg/kg/injection, schedule: Q01DX009 (ip), vehicle: saline with Tween-80 93 % of control | endpoint: mean survival time, dose: 50.0 mg/kg/injection, schedule: Q01DX009 (ip), vehicle: saline with Tween-80 91 % of control | [3] 90 % of control and 93 % of control | [8] 92 % of control

CC(C)(C#N)OC(=O)Nc1cccc(Cl)c1
inactive: [5] 93 % of control | [6] 90 % of control | [7] 86 % of control

N[N+]#COC1C(C(=O)NN)C1C(=O)NN (configuration not stated)
inactive: endpoint: median survival time, dose: 50.0 mg/kg/injection, schedule: Q04DX002 (ip), vehicle: saline with Tween-80 94 % of control | endpoint: median survival time, dose: 100.0 mg/kg/injection, schedule: Q04DX002 (ip), vehicle: saline with Tween-80 105 % of control | endpoint: median survival time, dose: 400.0 mg/kg/injection, schedule: Q04DX002 (ip), vehicle: saline with Tween-80 105 % of control
